Consider 6 compounds from patent US10004701B2, “Methods and compositions for treating infection” (UNIVERSITY OF ROCHESTER, priority 2012, dated 2018).

Holding throughout (assay): AK assay 384-well format, Prestwick library screening
In assay [1] the test system is K. pneumoniae. It is filed as cell-based, Klebsiella pneumoniae. The settings on record: 50 μM final drug concentration; for fold induction at 50 µM: Klebsiella pneumoniae, 3 h.
For assay [2], the system named is E. cloacae. It is filed as cell-based, Enterobacter cloacae. The settings on record: 50 μM final drug concentration; for fold induction at 50 µM: Enterobacter cloacae, 3 h.
Assay [3] has as its system S. aureus strain USA300-0114. It is filed as cell-based, Staphylococcus aureus. The settings on record: 50 μM final drug concentration; for fold induction at 50 µM: Staphylococcus aureus, USA300, 3 h.
Assay [4] has as its system E. faecium. It is filed as cell-based, Enterococcus faecium. The settings on record: 50 μM final drug concentration; for fold induction at 50 µM: Enterococcus faecium, 3 h.
Assay [5] deals with E. coli. It is filed as cell-based, Escherichia coli. The settings on record: 50 μM final drug concentration; for fold induction at 50 µM: Escherichia coli, 3 h.
The test system of assay [6] is A. baumannii strain 98-37-09. It is filed as cell-based, Acinetobacter baumannii. The settings on record: 50 μM final drug concentration; for fold induction at 50 µM: Acinetobacter baumannii, 983709, 3 h.
In assay [7] the test system is P. aeruginosa. It is filed as cell-based, Pseudomonas aeruginosa. The settings on record: 50 μM final drug concentration; for fold induction at 50 µM: Pseudomonas aeruginosa, 3 h.
The mark [8] stands for this setting: 384-well format, cutoff for positive-scoring molecules 3-fold increase, read-out: AK-based Prestwick Library Screening Results, K. pneumoniae (increase in extracellular AK activity).
Where [9] appears, read: 384-well format, cutoff for positive-scoring molecules 3-fold increase, read-out: AK-based Prestwick Library Screening Results, E. cloacae (increase in extracellular AK activity).
[10] abbreviates: 384-well format, cutoff for positive-scoring molecules 3-fold increase, read-out: AK-based Prestwick Library Screening Results, S. aureus (increase in extracellular AK activity).
Setting [11] is: 384-well format, cutoff for positive-scoring molecules 3-fold increase, read-out: AK-based Prestwick Library Screening Results, E. faecium (increase in extracellular AK activity).
Where [12] appears, read: 384-well format, cutoff for positive-scoring molecules 3-fold increase, read-out: AK-based Prestwick Library Screening Results, A. baumannii (increase in extracellular AK activity).
Setting [13] is: 384-well format, cutoff for positive-scoring molecules 3-fold increase, read-out: AK-based Prestwick Library Screening Results, P. aeruginosa (increase in extracellular AK activity).

Read-outs that look alike come from different tables or passages of the source. Where a SMILES comes first, the peptide text is derived from it. [ ]: non-standard residue; d: D form. The star is where a group is joined. Sta = CC(C)C[C@H](N)[C@@H](O)CC(=O)O; Isovaleryl = CC(C)CC(=O)*

In the case of `N=C(N)c1ccc(OCCCCCOc2ccc(C(=N)N)cc2)cc1` [Pentamidine isethionate], the fold induction at 50 µM in assay [1] (planktonic, cutoff for positive 3-fold increase, read-out: AK-based Prestwick Library Screening Results, K. pneumoniae (fold increase in extracellular AK activity)) amounted to 1.2; in assay [2] (planktonic, cutoff for positive 3-fold increase, read-out: AK-based Prestwick Library Screening Results, E. cloacae (fold increase in extracellular AK activity)), 1.4; in assay [3] (planktonic, cutoff for positive 3-fold increase, read-out: AK-based Prestwick Library Screening Results, S. aureus (fold increase in extracellular AK activity)) it was 1.9; in assay [4] (planktonic, cutoff for positive 3-fold increase, read-out: AK-based Prestwick Library Screening Results, E. faecium (fold increase in extracellular AK activity)) it was 1.4; in assay [5] (planktonic, cutoff for positive 3-fold increase, read-out: AK-based Prestwick Library Screening Results, E. coli (fold increase in extracellular AK activity)), 1.4; in assay [6] (planktonic, cutoff for positive 3-fold increase, read-out: AK-based Prestwick Library Screening Results, A. baumannii (fold increase in extracellular AK activity)), 1.2. Besides, the fold induction at 50 µM in assay [7] (planktonic, cutoff for positive 3-fold increase, read-out: AK-based Prestwick Library Screening Results, P. aeruginosa (fold increase in extracellular AK activity)) was found to be 1.2.
Consider `O=C(O)CN(CCN(CC(=O)O)CC(=O)O)CCN(CC(=O)O)CC(=O)O` [Pentetic acid], for which the fold induction at 50 µM was found to be 1.1 in assay [1] (cutoff for positive-scoring molecules 3-fold increase, read-out: AK-based Prestwick Library Screening Results, K. pneumoniae (fold increase in extracellular AK activity)); 1.5 in assay [2] (cutoff for positive-scoring molecules 3-fold increase, read-out: AK-based Prestwick Library Screening Results, E. cloacae (fold increase in extracellular AK activity)); 1.4 in assay [3] (cutoff for positive-scoring molecules 3-fold increase, read-out: AK-based Prestwick Library Screening Results, S. aureus (fold increase in extracellular AK activity)); 1 in assay [4] (cutoff for positive-scoring molecules 3-fold increase, read-out: AK-based Prestwick Library Screening Results, E. faecium (fold increase in extracellular AK activity)); 1.3 in assay [5] (cutoff for positive-scoring molecules 3-fold increase, read-out: AK-based Prestwick Library Screening Results, E. coli (fold increase in extracellular AK activity)); 1.3 in assay [6] (cutoff for positive-scoring molecules 3-fold increase, read-out: AK-based Prestwick Library Screening Results, A. baumannii (fold increase in extracellular AK activity)). Further, the fold induction at 50 µM in assay [7] (cutoff for positive-scoring molecules 3-fold increase, read-out: AK-based Prestwick Library Screening Results, P. aeruginosa (fold increase in extracellular AK activity)) is 1.2.
Consider `C[N+]1(CCCCC[N+]2(C)CCCC2)CCCC1.O=C([O-])C(O)C(O)C(=O)O.O=C([O-])C(O)C(O)C(=O)O` [Pentolinium bitartrate], for which, in assay [1] (384-well format, […]), the “AK-based Prestwick Library Screening Results, K. pneumoniae (increase in extracellular AK activity)” value is recorded as 0.7. Moreover, the “AK-based Prestwick Library Screening Results, E. cloacae (increase in extracellular AK activity)” value in assay [2] (384-well format, […]) is listed as 1.1. In assay [3] (384-well format, […]), the “AK-based Prestwick Library Screening Results, S. aureus (increase in extracellular AK activity)” value turned out to be 0.7. Moreover, in assay [4] (384-well format, […]), the “AK-based Prestwick Library Screening Results, E. faecium (increase in extracellular AK activity)” value worked out at 0.9. Also, the “AK-based Prestwick Library Screening Results, E. coli (increase in extracellular AK activity)” value in assay [5] (384-well format, […]) stood at 0.8. Besides, the “AK-based Prestwick Library Screening Results, A. baumannii (increase in extracellular AK activity)” value in assay [6] (384-well format, […]) was found to be 1.0. In addition, the “AK-based Prestwick Library Screening Results, P. aeruginosa (increase in extracellular AK activity)” value in assay [7] (384-well format, […]) is given as 1.0.
`CC(=O)CCCCn1c(=O)c2c(ncn2C)n(C)c1=O` [Pentoxifylline]: the fold induction at 50 µM in assay [1] (setting [8]) was 0.7; in assay [2] (setting [9]), 1.1; in assay [3] (setting [10]), 0.8; in assay [4] (setting [11]), 0.9; in assay [5] (384-well format, cutoff for positive-scoring molecules 3-fold increase, read-out: AK-based Prestwick Library Screening Results, E. coli (increase in extracellular AK activity)) it was 0.8; in assay [6] (setting [12]), 0.9. Further, the fold induction at 50 µM in assay [7] (setting [13]) was 0.8.
Turning to `C1CCc2nnnn2CC1` [Pentylenetetrazole], the fold induction at 50 µM stood at 0.5 in assay [1] (setting [8]); 0.6 in assay [2] (setting [9]); 0.7 in assay [3] (setting [10]); 1 in assay [4] (setting [11]); 0.6 in assay [5] (384-well format, […], read-out: AK-based Prestwick Library Screening Results, E. coli (increase in extracellular AK activity)); 0.6 in assay [6] (setting [12]). In addition, the fold induction at 50 µM in assay [7] (setting [13]) came out at 0.7.
In the case of `CC(C)CC(=O)N[C@H](C(=O)N[C@H](C(=O)N[C@@H](CC(C)C)[C@@H](O)CC(=O)N[C@@H](C)C(=O)N[C@@H](CC(C)C)[C@@H](O)CC(=O)O)C(C)C)C(C)C` [Pepstatin A] (Isovaleryl-VV[Sta]A[Sta]-OH), the “AK-based Prestwick Library Screening Results: K. pneumoniae (increase in extracellular AK activity)” value in assay [1] (planktonic K. pneumoniae, 384-well, […]) was found to be 0.5. Further, the “AK-based Prestwick Library Screening Results: E. cloacae (increase in extracellular AK activity)” value in assay [2] (planktonic E. cloacae, 384-well, […]) was 0.4. Moreover, the “AK-based Prestwick Library Screening Results: S. aureus (increase in extracellular AK activity)” value in assay [3] (planktonic S. aureus, 384-well, […]) was 0.4. Besides, in assay [4] (planktonic E. faecium, 384-well, […]), the “AK-based Prestwick Library Screening Results: E. faecium (increase in extracellular AK activity)” value turned out to be 0.8. In addition, the “AK-based Prestwick Library Screening Results: E. coli (increase in extracellular AK activity)” value in assay [5] (planktonic E. coli, 384-well, […]) is 0.5. The “AK-based Prestwick Library Screening Results: A. baumannii (increase in extracellular AK activity)” value in assay [6] (planktonic A. baumannii, 384-well, […]) was 0.4. The “AK-based Prestwick Library Screening Results: P. aeruginosa (increase in extracellular AK activity)” value in assay [7] (planktonic P. aeruginosa, 384-well, […]) came out at 0.4.
